{"source": "patent US12103951B2", "about": "“Use of CGRP receptor antagonists in neuroprotection and neurological disorders” (priority 2016, dated 2024)", "test_system": "retinal astrocytes", "test": "Rat laser glaucoma model: total number of GFAP-immunoreactive cells (retinal astrocytes)", "assay_type": "in vivo, Wistar rats", "conditions": "between the groups (CGRP antagonist vs vehicle)", "procedure": "In this study, Wistar rats (n=12) were used for the experiments. The neuroprotective properties of compounds were investigated in a rat laser model of glaucoma. Rats were divided into two groups of six rats each. One group served as a placebo control receiving vehicle (NaCl) injections, and the other was treated with a peptide CGRP receptor antagonist (SEQ ID NO: 1). For all 12 rats, the contralateral, untreated eye served as a naïve undiseased control. The vehicle control and test compound (20 mg/kg) were administered systemically (IP) daily for the whole follow-up period of two weeks. The animals were sacrificed using transcardial perfusion. The retinal whole-mounts were then immuno-stained against retinal ganglion cell (RGC) marker Brn3a and astrocytic marker GFAP (glial fibrillary acidic protein). The number of Brn3a positive profiles was manually counted from retinal images taken from central and peripheral parts of retina. The total number of GFAP-immunoreactive cells (retinal astrocytes) was estimated using stereology. […]\n1. Quantification of Brn3a and GFAP-positive cells from retinal whole mounts manually and using stereology.\nRetinal whole mounts were immuno-stained against RGC (Brn3a) and astrocytic (GFAP) antibodies and the number of cells was quantified either manually (Brn3a) or as previously described (Kalesnykas et al., 2008). […]"}
{"substance": "NH2-Ala-Cys-Asp-Thr-Ala-Ala-Cys-Val-Leu-Gly-Arg-Leu-Ser-Gln-Glu-Leu-His-Arg-Leu-Gln-Thr-Tyr-Pro-Arg-Thr-Asn-Val-Gly-Ser-Lys-Ala-Phe-NH2 (H-ACDTAACVLGRLSQELHRLQTYPRTNVGSKAF-NH2; ends and bridges not checked) [SEQ ID NO: 1, peptide CGRP receptor antagonist]", "values": [{"measurement": "total number of retinal astrocytes", "result": "no differences"}]}
